Data taken from patent US20260062422A1 (Halda Therapeutics OpCo, Inc., priority 2022, published 2026).

What was measured:
[1] = system: T-Rex 293 cell line SC3 cells having increased expression of androgen receptor protein due to exposure to doxycycline; test: Cellular growth inhibition, T-Rex 293 SC3 cells with doxycycline (androgen receptor induced), CellTiter-Glo; type: cell-based; conditions: 72 h, T-Rex 293 SC3 cells with 10 ng/mL doxycycline (increased androgen receptor expression)
In short: (§1)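 SC3 is a T-Rex 293 clone stably transfected with wild-type androgen receptor in pcDNA4/TO, inducible by 10 ng/mL doxycycline. Cells were grown in phenol red-free DMEM with 10% charcoal-dextran FBS, with or without doxycycline, dosed 24 h after seeding (0.5% DMSO) for 72 h. Viability was read by CellTiter-Glo 2.0 luminescence and GI50 obtained from four-parameter fits.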

[2] = system: T-Rex 293 cell line SC3 cells lacking increased expression of androgen receptor protein; test: Cellular growth inhibition, T-Rex 293 SC3 cells without doxycycline, CellTiter-Glo; type: cell-based; conditions: 72 h, T-Rex 293 SC3 cells not exposed to doxycycline, CellTiter-Glo 2.0
In short: as §1

[3] = system: T47D cells; test: Cellular growth inhibition assay for T47D cells, CellTiter-Glo; type: cell-based, human; conditions: Homo sapiens, T47D, 72 h, 72 hours treatment, CellTiter-Glo 2.0 cell viability
In short: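 Growth inhibition as GI50, fitted with four parameters to CellTiter-Glo luminescence after 72 h of compound exposure (0.5% DMSO). Cells were T47D, grown in insulin-supplemented (0.2 units/mL) DMEM with 10% FBS and treated one day post-seeding.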

For CCNC(=O)C[C@@H]1N=C(c2ccc(CCCC3CCN(c4ncc(C(=O)N[C@H]5C(C)(C)[C@H](Oc6ccc(C#N)c(Cl)c6)C5(C)C)cn4)CC3)cc2)c2c(sc(C)c2C)-n2c(C)nnc21 [Compound I-95], the GI50 [1] was less than 500 nM, the GI50 [2] was less than 500 nM and the GI50 [3] was less than 500 nM.
With Cc1sc2c(c1C)C(c1ccc(CCCOC3CCN(c4ncc(C(=O)N[C@H]5C(C)(C)[C@H](Oc6ccc(C#N)c(Cl)c6)C5(C)C)cn4)CC3)cc1)=N[C@@H](CC(=O)NC(C)C)c1nnc(C)n1-2 [Compound I-100] the GI50 [1] was less than 500 nM, the GI50 [2] was greater than 3000 nM and the GI50 [3] was 500 to 1500 nM.
CCN(C)C(=O)C[C@@H]1N=C(c2ccc(CCCOC3CCN(c4ncc(C(=O)N[C@H]5C(C)(C)[C@H](Oc6ccc(C#N)c(Cl)c6)C5(C)C)cn4)CC3)cc2)c2c(sc(C)c2C)-n2c(C)nnc21 [Compound I-101] was tested, and the GI50 [1] was less than 500 nM, the GI50 [2] was greater than 3000 nM and the GI50 [3] was 500 to 1500 nM.
Cc1sc2c(c1C)C(c1ccc(CCCOC3CCN(c4ncc(C(=O)N[C@H]5C(C)(C)[C@H](Oc6ccc(C#N)c(Cl)c6)C5(C)C)cn4)CC3)cc1)=N[C@@H](CC(=O)NC1CC1)c1nnc(C)n1-2 [Compound I-102] gave a GI50 [1] of less than 500 nM, a GI50 [2] greater than 3000 nM and a GI50 [3] of less than 500 nM.
With CCNC(=O)C[C@@H]1N=C(c2ccc(CCCN(C)c3ncc(C(=O)N[C@H]4C(C)(C)[C@H](Oc5ccc(C#N)c(Cl)c5)C4(C)C)cn3)cc2)c2c(sc(C)c2C)-n2c(C)nnc21 [Compound I-104] the GI50 [1] was less than 500 nM, the GI50 [2] was less than 500 nM and the GI50 [3] was less than 500 nM.
For CCNC(=O)C[C@@H]1N=C(c2ccc(N3CCN(CC4CCN(c5ncc(C(=O)N[C@H]6C(C)(C)[C@H](Oc7ccc(C#N)c(Cl)c7)C6(C)C)cn5)CC4)CC3)cc2)c2c(sc(C)c2C)-n2c(C)nnc21 [Compound I-105, N-[3-(3-chloro-4-cyano-phenoxy)-2,2,4,4-tetramethyl-cyclobutyl]-2-[4-[[4-[4-[(9S)-9-[2-(ethylamino)-2-oxo-ethyl]-4,5,13-trimethyl-3-thia-1,8,11,12-tetrazatricyclo[8.3.0.02,6]trideca-2(6),4,7,10,12-pentaen-7-yl]phenyl]piperazin-1-yl]methyl]-1-piperidyl]pyrimidine-5-carboxamide], the GI50 [1] was less than 500 nM, the GI50 [2] was less than 500 nM and the GI50 [3] was less than 500 nM.
Work on CCNC(=O)C[C@@H]1N=C(c2ccc(N(C)CC3CN(c4ncc(C(=O)N[C@H]5C(C)(C)[C@H](Oc6ccc(C#N)c(Cl)c6)C5(C)C)cn4)C3)cc2)c2c(sc(C)c2C)-n2c(C)nnc21 [Compound I-107] yielded a GI50 [1] of less than 500 nM, a GI50 [2] of 500 to 1500 nM and a GI50 [3] of 500 to 1500 nM.
For CCNC(=O)C[C@@H]1N=C(c2ccc(N(C)CCN3CCN(c4ncc(C(=O)N[C@H]5C(C)(C)[C@H](Oc6ccc(C#N)c(Cl)c6)C5(C)C)cn4)CC3)cc2)c2c(sc(C)c2C)-n2c(C)nnc21 [Compound I-108], the GI50 [1] was less than 500 nM, the GI50 [2] was less than 500 nM and the GI50 [3] was 500 to 1500 nM.
With CCNC(=O)C[C@@H]1N=C(c2ccc(N(C)C3CN(CC4CCN(c5ncc(C(=O)N[C@H]6C(C)(C)[C@H](Oc7ccc(C#N)c(Cl)c7)C6(C)C)cn5)CC4)C3)cc2)c2c(sc(C)c2C)-n2c(C)nnc21 [Compound I-119] the GI50 [1] was less than 500 nM, the GI50 [2] was 500 to 1500 nM and the GI50 [3] was less than 500 nM.
Work on CCNC(=O)C[C@@H]1N=C(c2ccc(N3CC(N(C)C4CN(c5ncc(C(=O)N[C@H]6C(C)(C)[C@H](Oc7ccc(C#N)c(Cl)c7)C6(C)C)cn5)C4)C3)cc2)c2c(sc(C)c2C)-n2c(C)nnc21 [Compound I-121] yielded a GI50 [1] of less than 500 nM, a GI50 [2] of 500 to 1500 nM and a GI50 [3] of less than 500 nM.
CCNC(=O)C[C@@H]1N=C(c2ccc(N3CCC(N(C)C4CN(c5ncc(C(=O)N[C@H]6C(C)(C)[C@H](Oc7ccc(C#N)c(Cl)c7)C6(C)C)cn5)C4)CC3)cc2)c2c(sc(C)c2C)-n2c(C)nnc21 [Compound I-123] showed a GI50 [1] of less than 500 nM, a GI50 [2] of 500 to 1500 nM and a GI50 [3] of less than 500 nM.
With CCNC(=O)C[C@@H]1N=C(c2ccc(N3CCC(CN4CC(Oc5ncc(C(=O)N[C@H]6C(C)(C)[C@H](Oc7ccc(C#N)c(Cl)c7)C6(C)C)cn5)C4)CC3)cc2)c2c(sc(C)c2C)-n2c(C)nnc21 [Compound I-124] the GI50 [1] was less than 500 nM, the GI50 [2] was 1500 to 3000 nM and the GI50 [3] was 500 to 1500 nM.
Work on CCNC(=O)C[C@@H]1N=C(c2ccc(N(C3CC3)C3CN(CC4CCN(c5ncc(C(=O)N[C@H]6C(C)(C)[C@H](Oc7ccc(C#N)c(Cl)c7)C6(C)C)cn5)CC4)C3)cc2)c2c(sc(C)c2C)-n2c(C)nnc21 [Compound I-129] yielded a GI50 [1] of less than 500 nM, a GI50 [2] of 1500 to 3000 nM and a GI50 [3] of 500 to 1500 nM.
CCNC(=O)C[C@@H]1N=C(c2ccc(N(C)C3CC(OC4CCN(c5ncc(C(=O)N[C@H]6C(C)(C)[C@H](Oc7ccc(C#N)c(Cl)c7)C6(C)C)cn5)CC4)C3)cc2)c2c(sc(C)c2C)-n2c(C)nnc21 (stereo partly drawn) [Compound I-130] gave a GI50 [1] of less than 500 nM, a GI50 [2] of 500 to 1500 nM and a GI50 [3] of 500 to 1500 nM.
With Cc1sc2c(c1C)C(c1ccc(CCCOC3CCN(c4ncc(C(=O)N[C@H]5C(C)(C)[C@H](Oc6ccc(C#N)c(Cl)c6)C5(C)C)cn4)CC3)cc1)=N[C@@H](Cc1ncco1)c1nnc(C)n1-2 [Compound I-131, N-[3-(3-chloro-4-cyano-phenoxy)-2,2,4,4-tetramethyl-cyclobutyl]-2-[4-[3-[4-[(9S)-4,5,13-trimethyl-9-(oxazol-2-ylmethyl)-3-thia-1,8,11,12-tetrazatricyclo[8.3.0.02,6]trideca-2(6),4,7,10,12-pentaen-7-yl]phenyl]propoxy]-1-piperidyl]pyrimidine-5-carboxamide] the GI50 [1] was less than 500 nM, the GI50 [2] was less than 500 nM and the GI50 [3] was less than 500 nM.
Cc1sc2c(c1C)C(c1ccc(CC3CC(C4CCN(c5ncc(C(=O)N[C@H]6C(C)(C)[C@H](Oc7ccc(C#N)c(Cl)c7)C6(C)C)cn5)CC4)C3)cc1)=NC(Cc1ncco1)c1nnc(C)n1-2 (stereo partly drawn) [Compound I-136] gave a GI50 [1] of less than 500 nM, a GI50 [2] greater than 3000 nM and a GI50 [3] of less than 500 nM.
With Cc1sc2c(c1C)C(c1ccc(CC3CN(CC4CCN(c5ncc(C(=O)N[C@H]6C(C)(C)[C@H](Oc7ccc(C#N)c(Cl)c7)C6(C)C)cn5)CC4)C3)cc1)=N[C@@H](Cc1ncco1)c1nnc(C)n1-2 [Compound I-153] the GI50 [1] was less than 500 nM, the GI50 [2] was 500 to 1500 nM and the GI50 [3] was less than 500 nM.
For Cc1sc2c(c1C)C(c1ccc(C[C@H]3C[C@@H]([C@@H]4CCCN(c5ncc(C(=O)N[C@H]6C(C)(C)[C@H](Oc7ccc(C#N)c(Cl)c7)C6(C)C)cn5)C4)C3)cc1)=N[C@@H](Cc1ncco1)c1nnc(C)n1-2 [Compound I-161], the GI50 [1] was less than 500 nM, the GI50 [2] was 500 to 1500 nM and the GI50 [3] was less than 500 nM.
With Cc1sc2c(c1C)C(c1ccc(OC3CC4(CCN(c5ncc(C(=O)N[C@H]6C(C)(C)[C@H](Oc7ccc(C#N)c(Cl)c7)C6(C)C)cn5)CC4)C3)cc1)=NC(Cc1ncco1)c1nnc(C)n1-2 (stereo partly drawn) [Compound I-166] the GI50 [1] was less than 500 nM, the GI50 [2] was 500 to 1500 nM and the GI50 [3] was 500 to 1500 nM.
Cc1sc2c(c1C)C(c1ccc(OC3CN(CC4CCN(c5ncc(C(=O)N[C@H]6C(C)(C)[C@H](Oc7ccc(C#N)c(Cl)c7)C6(C)C)cn5)CC4)C3)cc1)=N[C@H](Cc1ncco1)c1nnc(C)n1-2 [Compound I-169] was tested, and the GI50 [1] was less than 500 nM, the GI50 [2] was greater than 3000 nM and the GI50 [3] was less than 500 nM.
With Cc1sc2c(c1C)C(c1ccc(O[C@H]3CC[C@@]4(CCCN(c5ncc(C(=O)N[C@H]6C(C)(C)[C@H](Oc7ccc(C#N)c(Cl)c7)C6(C)C)cn5)C4)CC3)cc1)=N[C@@H](Cc1ncco1)c1nnc(C)n1-2 [Compound I-172] the GI50 [1] was less than 500 nM, the GI50 [2] was 500 to 1500 nM and the GI50 [3] was less than 500 nM.
With Cc1sc2c(c1C)C(c1ccc(N3CC(C4CCN(c5ncc(C(=O)N[C@H]6C(C)(C)[C@H](Oc7ccc(C#N)c(Cl)c7)C6(C)C)cn5)CC4)C3)cc1)=NC(Cc1ncco1)c1nnc(C)n1-2 (stereo partly drawn) [Compound I-209] the GI50 [1] was less than 500 nM, the GI50 [2] was greater than 3000 nM and the GI50 [3] was less than 500 nM.
